Laboratory results: BindingDB's records for PubMed 2156866 (Nagoya University School of Medicine, 1990)

How the values were obtained:
Test in all cases: Enzyme Assay
Details in all cases: 30 °C
[1] = target: Protein kinase C alpha type (Homo sapiens, UniProt P17252)
Excerpt: (§1) Protein kinase C, cAMP dependent protein kinase, cGMP dependent protein kinase and myosin light chain kinase activity were measure under conditions described by Hidaka. Casein kinases I and II activities were meas8ured as described by Chijiwa. Ca/ calmodulin kinase II activity was measure d by the method described by McGuinness.

[2] = target: T1, cGMP-dependent protein kinase 1 (Homo sapiens, UniProt Q13976)
T1 sequence (Q13976 whole entry): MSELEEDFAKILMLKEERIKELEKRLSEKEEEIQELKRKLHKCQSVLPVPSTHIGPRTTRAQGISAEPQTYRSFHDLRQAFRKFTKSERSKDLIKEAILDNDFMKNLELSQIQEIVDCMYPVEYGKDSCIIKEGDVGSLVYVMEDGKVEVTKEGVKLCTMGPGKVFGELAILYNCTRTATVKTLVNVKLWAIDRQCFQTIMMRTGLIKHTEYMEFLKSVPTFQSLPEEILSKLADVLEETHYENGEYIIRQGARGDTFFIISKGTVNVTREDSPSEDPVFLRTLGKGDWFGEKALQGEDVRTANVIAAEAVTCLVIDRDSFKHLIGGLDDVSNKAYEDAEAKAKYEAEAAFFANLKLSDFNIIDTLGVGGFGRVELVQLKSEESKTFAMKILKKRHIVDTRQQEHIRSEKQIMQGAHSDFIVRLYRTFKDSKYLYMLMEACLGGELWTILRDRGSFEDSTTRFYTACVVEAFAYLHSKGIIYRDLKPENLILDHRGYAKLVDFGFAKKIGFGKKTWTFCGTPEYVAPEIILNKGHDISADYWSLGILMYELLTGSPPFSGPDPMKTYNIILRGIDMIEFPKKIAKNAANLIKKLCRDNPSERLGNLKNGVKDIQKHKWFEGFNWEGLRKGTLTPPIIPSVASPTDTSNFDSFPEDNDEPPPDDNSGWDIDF
Excerpt: as §1

[3] = target: Casein kinase II subunit alpha (Homo sapiens, UniProt P68400)
Excerpt: as §1

[4] = target: Calcium/calmodulin-dependent protein kinase type II subunit beta (Homo sapiens, UniProt Q13554)
Excerpt: as §1

[5] = target: cAMP-dependent protein kinase catalytic subunit alpha (Homo sapiens, UniProt P17612)
Excerpt: as §1

[6] = target: Casein kinase I isoform alpha (Homo sapiens, UniProt P48729)
Excerpt: as §1

Sequence of Calcium/calmodulin-dependent protein kinase type II subunit beta (Q13554 whole entry): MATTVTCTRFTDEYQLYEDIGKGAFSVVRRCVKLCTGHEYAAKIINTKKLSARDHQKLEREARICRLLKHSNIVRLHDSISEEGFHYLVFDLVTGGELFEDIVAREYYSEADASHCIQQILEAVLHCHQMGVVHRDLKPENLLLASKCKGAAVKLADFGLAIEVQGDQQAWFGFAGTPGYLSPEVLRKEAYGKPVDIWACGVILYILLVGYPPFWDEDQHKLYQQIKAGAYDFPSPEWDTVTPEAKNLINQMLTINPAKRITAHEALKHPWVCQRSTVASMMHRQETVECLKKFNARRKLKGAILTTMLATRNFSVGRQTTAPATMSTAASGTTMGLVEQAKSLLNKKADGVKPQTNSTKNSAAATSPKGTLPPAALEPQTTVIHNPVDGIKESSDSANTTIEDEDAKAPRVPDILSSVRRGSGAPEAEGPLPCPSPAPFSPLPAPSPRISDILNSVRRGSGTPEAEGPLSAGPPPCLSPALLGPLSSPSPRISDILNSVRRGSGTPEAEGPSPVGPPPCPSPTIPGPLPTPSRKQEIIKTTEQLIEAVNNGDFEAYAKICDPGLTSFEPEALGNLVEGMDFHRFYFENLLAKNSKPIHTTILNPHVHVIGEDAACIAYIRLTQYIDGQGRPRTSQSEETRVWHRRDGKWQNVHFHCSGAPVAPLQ
Sequence of Casein kinase II subunit alpha (P68400 whole entry): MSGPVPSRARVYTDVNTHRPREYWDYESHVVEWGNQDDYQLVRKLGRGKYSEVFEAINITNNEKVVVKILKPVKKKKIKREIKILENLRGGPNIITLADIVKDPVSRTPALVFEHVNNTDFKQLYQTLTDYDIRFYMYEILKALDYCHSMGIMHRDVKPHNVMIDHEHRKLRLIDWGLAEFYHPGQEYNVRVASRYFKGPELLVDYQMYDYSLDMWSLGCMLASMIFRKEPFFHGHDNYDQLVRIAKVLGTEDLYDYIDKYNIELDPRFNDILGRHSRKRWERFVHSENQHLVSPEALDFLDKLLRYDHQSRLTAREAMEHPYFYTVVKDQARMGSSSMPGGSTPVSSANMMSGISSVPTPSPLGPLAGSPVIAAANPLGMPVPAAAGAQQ
Sequence of Casein kinase I isoform alpha (P48729 whole entry, canonical isoform): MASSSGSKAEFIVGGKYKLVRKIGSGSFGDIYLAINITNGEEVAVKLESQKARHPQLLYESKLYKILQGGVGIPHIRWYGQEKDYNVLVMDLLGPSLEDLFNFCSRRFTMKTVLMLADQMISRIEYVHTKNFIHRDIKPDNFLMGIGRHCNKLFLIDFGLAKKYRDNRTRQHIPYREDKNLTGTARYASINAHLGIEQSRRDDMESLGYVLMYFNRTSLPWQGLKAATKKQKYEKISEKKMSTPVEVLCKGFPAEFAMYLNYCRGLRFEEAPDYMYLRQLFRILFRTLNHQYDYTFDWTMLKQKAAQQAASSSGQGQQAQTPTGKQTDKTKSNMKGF

Compound	Ki [1]	Ki [2]	Ki [3]	Ki [4]	Ki [5]	Ki [6]
O=S(=O)(NCCNC/C=C/c1ccccc1)c1cccc2cnccc12 [H-88]	75.7 µM	0.76 µM	104 µM	71.3 µM	0.36 µM	60.7 µM
O=S(=O)(NCCNC/C=C/c1ccc(Br)cc1)c1cccc2cnccc12		0.48 µM		29.7 µM		
